Values quoted from earlier work as cited in Sander's compilation of Henry's law constants.

Experiment: Henry solubility constant Hcp at 298.15 K (mol/(m3 Pa))
Settings: cited value
[1] = reference: Fogg and Sangster (2003)
[2] = reference: Burkholder et al. (2015)
[3] = reference: Burkholder et al. (2019)
[4] = reference: Mackay et al. (1995)
[5] = reference: Barcelo and Hennion (1997)

Question: Which “Henry solubility constant Hcp” value (reference: Brockbank (2013)) does the source give for CC(=O)CC(C)C [4-methyl-2-pentanone] here?
Answer: Its value is 0.069.

Question: And the “Henry solubility constant Hcp” value (reference: Howard (1990))?
Answer: The value was 0.11.

Question: Which “Henry solubility constant Hcp” value (reference: Brockbank (2013)) does the source give for CCCC(C)CCC [4-methylheptane] here?
Answer: Its value is 2.7e-06.

Question: Which “Henry solubility constant Hcp” value (reference: Brockbank (2013)) does the source give for Cc1ccncc1 [4-methylpyridine] here?
Answer: The value was 1.6.

Question: For Nc1ccc([N+](=O)[O-])cc1 [4-nitrobenzenamine], which “Henry solubility constant Hcp” value (reference: Brockbank (2013)) is on record?
Answer: The value was 8700.

Question: With O=[N+]([O-])c1ccc(O)cc1 [4-nitrophenol] as the compound, how does the “Henry solubility constant Hcp” value (reference: Goldstein (1982)) read?
Answer: The value was 9.8.

Question: For Cc1ccc([N+](=O)[O-])cc1 [4-nitrotoluene], which “Henry solubility constant Hcp” value (reference: Brockbank (2013)) is on record?
Answer: Its value is 0.89.

Question: What about the “Henry solubility constant Hcp” value (reference: Goldstein (1982)) of the same compound?
Answer: The value was 0.16.

Question: With CCCCC(=O)CCCC [5-nonanone] as the compound, how does the “Henry solubility constant Hcp” value (reference: Brockbank (2013)) read?
Answer: Its value is 0.04.

Question: With CC(C)(C)OC=O [(1,1-dimethylethyl)-methanoate] as the compound, how does the “Henry solubility constant Hcp” value (reference: Brockbank (2013)) read?
Answer: The value was 0.014.

Question: For C=COCC(F)(F)F [(2,2,2-trifluoroethoxy)-ethene], which “Henry solubility constant Hcp” value [1] is on record?
Answer: The value was 0.00054.

Question: For CC(C)COC=O [(2-methylpropyl)-methanoate], which “Henry solubility constant Hcp” value (reference: Brockbank (2013)) is on record?
Answer: The value was 0.016.

Question: With CC(C)c1ccccc1 [(2-propyl)-benzene] as the compound, how does the “Henry solubility constant Hcp” value (reference: Brockbank (2013)) read?
Answer: The value was 0.0009.

Question: With CCC/C=C/C=O [(E)-2-hexenal] as the compound, how does the “Henry solubility constant Hcp” value (reference: Meynier et al. (2003)) read?
Answer: Its value is 0.2.

Question: For C(=C\c1ccccc1)/c1ccccc1 [(E)-stilbene], which “Henry solubility constant Hcp” value (reference: Mackay et al. (1992b)) is on record?
Answer: Its value is 0.025.

Question: With ClCc1ccccc1 [(chloromethyl)-benzene] as the compound, how does the “Henry solubility constant Hcp” value (reference: Brockbank (2013)) read?
Answer: The value was 0.022.

Question: For ClCC1CO1 (stereo not given) [(chloromethyl)-oxirane], which “Henry solubility constant Hcp” value (reference: Goldstein (1982)) is on record?
Answer: Its value is 0.28.

Question: Which “Henry solubility constant Hcp” value (reference: Brockbank (2013)) does the source give for CCN(CC)c1ccccc1 [(diethylamino)-benzene] here?
Answer: Its value is 0.067.

Question: Which “Henry solubility constant Hcp” value (reference: Brockbank (2013)) does the source give for CCNc1ccccc1 [(ethylamino)-benzene] here?
Answer: Its value is 0.81.

Question: Which “Henry solubility constant Hcp” value (reference: Howard (1993)) does the source give for OCc1ccccc1 [(hydroxymethyl)-benzene] here?
Answer: Its value is 25.

Question: For C=CCN(CC=C)CC=C [N,N-di-2-propenyl-2-propen-1-amine], which “Henry solubility constant Hcp” value (reference: Brockbank (2013)) is on record?
Answer: The value was 0.039.

Question: Which results are given for CN(Cl)Cl [N,N-dichloromethylamine]?
Answer: Henry solubility constant Hcp [2]: 0.0033; Henry solubility constant Hcp [3]: 0.0033

Question: With CN1CCCC1=O [N-methyl-2-pyrrolidone] as the compound, how does the “Henry solubility constant Hcp” value (reference: Brockbank (2013)) read?
Answer: The value was 3100.

Question: Which “Henry solubility constant Hcp” value [2] does the source give for CNC(C)=O [N-methylacetamide] here?
Answer: Its value is 2100.

Question: And the “Henry solubility constant Hcp” value [3]?
Answer: The value was 2100.

Question: For CNC=O [N-methylmethanamide], which “Henry solubility constant Hcp” value (reference: Brockbank (2013)) is on record?
Answer: The value was 1400.

Question: What about the “Henry solubility constant Hcp” value [2] of the same compound?
Answer: The value was 1400.

Question: And the “Henry solubility constant Hcp” value [3]?
Answer: The value was 1400.

Question: With CN(C)N=O [N-nitrosodimethylamine] as the compound, how does the “Henry solubility constant Hcp” value [2] read?
Answer: The value was 3.9.

Question: And the “Henry solubility constant Hcp” value [3]?
Answer: The value was 3.9.

Question: What about the “Henry solubility constant Hcp” value [4] of the same compound?
Answer: The value was 0.3.

Question: Which “Henry solubility constant Hcp” value [4] does the source give for O=NN(c1ccccc1)c1ccccc1 [N-nitrosodiphenylamine] here?
Answer: The value was 0.015.

Question: Which “Henry solubility constant Hcp” value [4] does the source give for CCCN(CCC)N=O [N-nitrosodipropylamine] here?
Answer: The value was 1.6.

Question: Which “Henry solubility constant Hcp” value [5] does the source give for CCCN(CCC)C(=O)SCC [S-ethyl dipropylthiocarbamate] here?
Answer: Its value is 0.01.

Question: What does the source list for c1cc2c3c(cccc3c1)CC2 [acenaphthene]?
Answer: Henry solubility constant Hcp (reference: Brockbank (2013)): 0.072; Henry solubility constant Hcp [1]: 0.055; Henry solubility constant Hcp (reference: Goldstein (1982)): 0.041; Henry solubility constant Hcp (reference: HSDB (2015)): 0.064; Henry solubility constant Hcp (reference: McCarty (1980)): 0.052

Question: What does the source list for C1=Cc2cccc3cccc1c23 [acenaphthylene]?
Answer: Henry solubility constant Hcp (reference: Brockbank (2013)): 0.085; Henry solubility constant Hcp [1]: 0.091

Question: With COP(=O)(NC(C)=O)SC (stereo not given) [acephate] as the compound, how does the “Henry solubility constant Hcp” value [5] read?
Answer: Its value is 190000.

Question: With CNC(=O)O/N=C/C(C)(C)SC [aldicarb] as the compound, how does the “Henry solubility constant Hcp” value [5] read?
Answer: The value was 31.

Question: What does the source list for ClC1=C(Cl)[C@]2(Cl)[C@H]3[C@H]([C@@H]4C=C[C@H]3C4)[C@@]1(Cl)C2(Cl)Cl [aldrin]?
Answer: Henry solubility constant Hcp [5]: 0.00011; Henry solubility constant Hcp (reference: Meylan and Howard (1991)): 0.02

Question: What does the source list for C=CCSC [allyl methyl sulfide]?
Answer: Henry solubility constant Hcp [2]: 0.0042; Henry solubility constant Hcp [3]: 0.0042

Question: For CCNc1nc(NC(C)C)nc(SC)n1 [ametryn], which “Henry solubility constant Hcp” value [5] is on record?
Answer: Its value is 82.

Question: Which “Henry solubility constant Hcp” value (reference: MacBean (2012b)) does the source give for CC(C)c1nn(C(=O)NC(C)(C)C)c(=O)n1N [amicarbazone] here?
Answer: Its value is 1.5e+07.

Question: For Nc1ccccc1 [aminobenzene], which “Henry solubility constant Hcp” value (reference: Brockbank (2013)) is on record?
Answer: The value was 4.9.

Question: With Cc1c(Br)c2ccc(F)cc2n1S(=O)(=O)c1ncn(S(=O)(=O)N(C)C)n1 [amisulbrom] as the compound, how does the “Henry solubility constant Hcp” value (reference: MacBean (2012b)) read?
Answer: The value was 47.

Question: For Cc1ccc(N=CN(C)C=Nc2ccc(C)cc2C)c(C)c1 [amitraz], which “Henry solubility constant Hcp” value (reference: MacBean (2012b)) is on record?
Answer: Its value is 1.

Question: For c1ccc2cc3ccccc3cc2c1 [anthracene], which “Henry solubility constant Hcp” value (reference: Brockbank (2013)) is on record?
Answer: Its value is 0.33.

Question: What about the “Henry solubility constant Hcp” value [1] of the same compound?
Answer: The value was 0.17.

Question: And the “Henry solubility constant Hcp” value (reference: Goldstein (1982))?
Answer: Its value is 0.35.

Question: What about the “Henry solubility constant Hcp” value (reference: McCarty (1980)) of the same compound?
Answer: The value was 0.007.

Question: And the “Henry solubility constant Hcp” value (reference: Smith et al. (1981a))?
Answer: Its value is 0.1.

Question: Which “Henry solubility constant Hcp” value (reference: Clever (1980)) does the source give for [Ar] [argon] here?
Answer: Its value is 1.4e-05.

Question: For CC(C)N1C(=O)c2ccccc2NS1(=O)=O [bentazone], which “Henry solubility constant Hcp” value [5] is on record?
Answer: Its value is 130.

Question: Which “Henry solubility constant Hcp” value (reference: MacBean (2012b)) does the source give for CC(C)OC(=O)N[C@@H](C(=O)N[C@H](C)c1nc2ccc(F)cc2s1)C(C)C [benthiavalicarb isopropyl] here?
Answer: The value was 110.

Question: Which “Henry solubility constant Hcp” value (reference: Brockbank (2013)) does the source give for O=Cc1ccccc1 [benzaldehyde] here?
Answer: Its value is 0.4.

Question: What about the “Henry solubility constant Hcp” value (reference: Gaffney and Senum (1984)) of the same compound?
Answer: The value was 0.36.

Question: Which “Henry solubility constant Hcp” value (reference: Brockbank (2013)) does the source give for c1ccccc1 [benzene] here?
Answer: The value was 0.0018.

Question: And the “Henry solubility constant Hcp” value (reference: Goldstein (1982))?
Answer: Its value is 0.0018.
